# In PubChem BioAssay AID1918937 (Molecular Pharmacology Branch, DTP, NCI, 2023):
# Test system: 521955-158-R2-J5-PDC complex spheroid viability
# Assay: Anticancer human tumor 521955-158-R2-J5-PDC patient-derived pancreatic carcinoma cell line growth inhibition
# Conditions: for IC50: curve of first compound; for viability, T/C: stronger effect = lower value
# In short: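 Multicellular complex spheroids of tumor cells with human endothelial cells (HUVEC) and mesenchymal stem cells; the LSD1 inhibitor iadademstat was combined with standard-of-care or investigational agents. Top concentration at or near clinical Cmax, half-log dilutions; final DMSO ≤0.25%.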
# [1] = second compound 0.1 µM, first compound 0.0316 µM
# [2] = second compound 0.1 µM, first compound 0.1 µM
# [3] = second compound 0.316 µM, first compound 0.0316 µM
# [4] = second compound 0.316 µM, first compound 0.1 µM
# [5] = second compound 1 µM, first compound 0.0316 µM
# [6] = second compound 1 µM, first compound 0.1 µM
# [7] = second compound 3.16 µM, first compound 0.0316 µM
# [8] = second compound 3.16 µM, first compound 0.1 µM
# [9] = second compound 10 µM, first compound 0.0316 µM
# [10] = second compound 10 µM, first compound 0.1 µM
# [11] = second compound 0.1 µM, first compound 0.316 µM
# [12] = second compound 0.1 µM, first compound 1 µM
# [13] = second compound 0.1 µM, first compound 3.16 µM
# [14] = second compound 0.1 µM, first compound 10 µM
# [15] = second compound 0.316 µM, first compound 0.316 µM
# [16] = second compound 0.316 µM, first compound 1 µM
# [17] = second compound 0.316 µM, first compound 3.16 µM
# [18] = second compound 0.316 µM, first compound 10 µM
# [19] = second compound 1 µM, first compound 0.316 µM
# [20] = second compound 1 µM, first compound 1 µM
# [21] = second compound 1 µM, first compound 3.16 µM
# [22] = second compound 1 µM, first compound 10 µM
# [23] = second compound 3.16 µM, first compound 0.316 µM
# [24] = second compound 3.16 µM, first compound 1 µM
# [25] = second compound 3.16 µM, first compound 3.16 µM
# [26] = second compound 3.16 µM, first compound 10 µM
# [27] = second compound 10 µM, first compound 0.316 µM
# [28] = second compound 10 µM, first compound 1 µM
# [29] = second compound 10 µM, first compound 3.16 µM
# [30] = second compound 10 µM, first compound 10 µM
# 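Further: spheroids exposed to agents for seven days.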
# 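Wherever viability, T/C is given: percent of DMSO vehicle control luminescence viability.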
structure (smiles),measurement,setting,value
Cn1ncnc1C1c2n[nH]c(=O)c3cc(F)cc(c23)NC1c1ccc(F)cc1 (stereo not given) + NC1CC1c1ccc(-c2cccc(O)c2)cc1,IC50,second compound 0.1 µM,> 0.1 µM
same,IC50,second compound 0.316 µM,> 0.1 µM
same,IC50,second compound 1 µM,> 0.1 µM
same,IC50,second compound 3.16 µM,> 0.1 µM
same,IC50,second compound 10 µM,> 0.1 µM
same,"viability, T/C","second compound 0.1 µM, first compound 0.000316 µM",91.4%
same,"viability, T/C","second compound 0.1 µM, first compound 0.001 µM",89.3%
same,"viability, T/C","second compound 0.1 µM, first compound 0.00316 µM",92.2%
same,"viability, T/C","second compound 0.1 µM, first compound 0.01 µM",80.4%
same,"viability, T/C",[1],77.3%
same,"viability, T/C",[2],76.2%
same,"viability, T/C","second compound 0.316 µM, first compound 0.000316 µM",91.5%
same,"viability, T/C","second compound 0.316 µM, first compound 0.001 µM",100%
same,"viability, T/C","second compound 0.316 µM, first compound 0.00316 µM",92.9%
same,"viability, T/C","second compound 0.316 µM, first compound 0.01 µM",88.8%
same,"viability, T/C",[3],83%
same,"viability, T/C",[4],78.9%
same,"viability, T/C","second compound 1 µM, first compound 0.000316 µM",82%
same,"viability, T/C","second compound 1 µM, first compound 0.001 µM",83.8%
same,"viability, T/C","second compound 1 µM, first compound 0.00316 µM",93.1%
same,"viability, T/C","second compound 1 µM, first compound 0.01 µM",91.8%
same,"viability, T/C",[5],94.9%
same,"viability, T/C",[6],81.1%
same,"viability, T/C","second compound 3.16 µM, first compound 0.000316 µM",94.9%
same,"viability, T/C","second compound 3.16 µM, first compound 0.001 µM",103%
same,"viability, T/C","second compound 3.16 µM, first compound 0.00316 µM",101%
same,"viability, T/C","second compound 3.16 µM, first compound 0.01 µM",95%
same,"viability, T/C",[7],89%
same,"viability, T/C",[8],84.5%
same,"viability, T/C","second compound 10 µM, first compound 0.000316 µM",97.8%
same,"viability, T/C","second compound 10 µM, first compound 0.001 µM",96.1%
same,"viability, T/C","second compound 10 µM, first compound 0.00316 µM",108%
same,"viability, T/C","second compound 10 µM, first compound 0.01 µM",94.4%
same,"viability, T/C",[9],90.2%
same,"viability, T/C",[10],87.7%
COc1ccc([C@@H](O)c2cc(-c3ncnc4cc(N5CCOCC5)ccc34)c(F)cc2Cl)nn1 + NC1CC1c1ccc(-c2cccc(O)c2)cc1,IC50,second compound 0.1 µM,1.23 µM
same,IC50,second compound 0.316 µM,1.64 µM
same,IC50,second compound 1 µM,1.31 µM
same,IC50,second compound 3.16 µM,1.21 µM
same,IC50,second compound 10 µM,0.836 µM
same,"viability, T/C",[1],72.7%
same,"viability, T/C",[2],78.3%
same,"viability, T/C",[11],73.6%
same,"viability, T/C",[12],49.9%
same,"viability, T/C",[13],36.5%
same,"viability, T/C",[14],21.6%
same,"viability, T/C",[3],74.3%
same,"viability, T/C",[4],69.5%
same,"viability, T/C",[15],68.2%
same,"viability, T/C",[16],57.6%
same,"viability, T/C",[17],39.9%
same,"viability, T/C",[18],20.6%
same,"viability, T/C",[5],76.1%
same,"viability, T/C",[6],72%
same,"viability, T/C",[19],63.1%
same,"viability, T/C",[20],55.5%
same,"viability, T/C",[21],37.3%
same,"viability, T/C",[22],20.5%
same,"viability, T/C",[7],74.5%
same,"viability, T/C",[8],78.7%
same,"viability, T/C",[23],65.4%
same,"viability, T/C",[24],53.1%
same,"viability, T/C",[25],35.2%
same,"viability, T/C",[26],21.7%
same,"viability, T/C",[9],75.3%
same,"viability, T/C",[10],70.6%
same,"viability, T/C",[27],59.8%
same,"viability, T/C",[28],49.9%
same,"viability, T/C",[29],31.8%
same,"viability, T/C",[30],21.6%
CC(C)c1c(-c2ccccc2)nc2c(C#N)c[nH]n2c1=O + NC1CC1c1ccc(-c2cccc(O)c2)cc1,IC50,second compound 0.1 µM,> 10 µM
same,IC50,second compound 0.316 µM,> 10 µM
same,IC50,second compound 1 µM,> 10 µM
same,IC50,second compound 3.16 µM,> 10 µM
same,IC50,second compound 10 µM,3.3 µM
same,"viability, T/C",[1],48.6%
same,"viability, T/C",[2],55.6%
same,"viability, T/C",[11],62.2%
same,"viability, T/C",[12],46.3%
same,"viability, T/C",[13],54.8%
same,"viability, T/C",[14],56.8%
same,"viability, T/C",[3],54.5%
same,"viability, T/C",[4],55.9%
same,"viability, T/C",[15],60.8%
same,"viability, T/C",[16],56.3%
same,"viability, T/C",[17],54.5%
same,"viability, T/C",[18],46.8%
same,"viability, T/C",[5],65.5%
same,"viability, T/C",[6],70.8%
same,"viability, T/C",[19],72.2%
same,"viability, T/C",[20],58.8%
same,"viability, T/C",[21],60.6%
same,"viability, T/C",[22],49.5%
same,"viability, T/C",[7],57.6%
same,"viability, T/C",[8],67.2%
same,"viability, T/C",[23],71.3%
same,"viability, T/C",[24],69.8%
same,"viability, T/C",[25],58.3%
same,"viability, T/C",[26],39.7%
same,"viability, T/C",[9],62.9%
same,"viability, T/C",[10],72.7%
same,"viability, T/C",[27],70.2%
same,"viability, T/C",[28],61.8%
same,"viability, T/C",[29],50.9%
same,"viability, T/C",[30],41.3%
